Data reported in patent US11345694B2, “Antibacterial compounds” (DISCUVA LTD., priority 2017, dated 2022).
Values after ≈ are worked out from the molar mass of the structure shown.

Legend:
[1] = test system: E. coli NCTC 13441 (UPEC); test: MIC broth microdilution; type: cell-based, Escherichia coli; details: for MIC: Escherichia coli, NCTC13441
Method in brief: (§1)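 Read-out is visible growth: the MIC is the lowest compound concentration that prevents it after incubating 20-24 hours at 37° C in air. Compounds span 0.39-200 μM final (two-fold steps, up to 2% DMSO) in cation-adjusted Müller-Hinton broth, following CLSI guidelines for planktonic bacteria.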

[2] = test system: Acinetobacter baumannii ATCC 17978 (AB); test: MIC broth microdilution; type: cell-based; details: for MIC: ATCC17978
Method in brief: as §1

[3] = test system: Enterobacter cloacae DSM 30054 (Ed); test: MIC broth microdilution; type: cell-based; details: for MIC: DSM30054
Method in brief: (§2)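 Growth inhibition read after 20-24 hour incubation at 37° C in ambient atmosphere; MIC is the lowest compound concentration with no growth. Planktonic bacteria in cation-adjusted Müller-Hinton broth were exposed to two-fold dilutions (0.39-200 μM final; ≤2% DMSO final) per CLSI guidelines.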

[4] = test system: Escherichia coli K12 (EC); test: MIC broth microdilution; type: cell-based
Method in brief: as §1

[5] = test system: Klebsiella pneumoniae ATCC 10031 (KP2); test: MIC broth microdilution; type: cell-based; details: ATCC10031
Method in brief: as §2

[6] = test system: Pseudomonas aeruginosa ATCC 33359 (PA); test: MIC broth microdilution; type: cell-based; details: for MIC: ATCC33359
Method in brief: as §1

[7] = test system: Salmonella typhimurium XNAA5 (St); test: MIC broth microdilution; type: cell-based; details: for MIC: Salmonella enterica
Method in brief: as §1

[8] = test system: Serratia marcescens SL1344 (Sm); test: MIC broth microdilution; type: cell-based
Method in brief: as §1

[9] = test system: Staphylococcus aureus ATCC 35556 (SA); test: MIC broth microdilution; type: cell-based; details: for MIC: ATCC35556
Method in brief: as §1

[10] = test system: K. pneumoniae NCTC 13438 (KP1); test: MIC broth microdilution; type: cell-based, Klebsiella pneumoniae; details: Klebsiella pneumoniae, NCTC13438
Method in brief: as §2

[11] = test system: human hepatocarcinoma cell line ATCC HB-8065 (HepG2); test: Human cell viability (CellTiter-Glo); type: cell-based; details: Homo sapiens; HepG2 cells, 24 h incubation, CellTiter-Glo luminescence, 0.2-100 μM; read-out: IC50 values against the HepG2 cell line
Method in brief: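 HepG2 cells were seeded at 20,000 cells/well in MEM with 10% FBS and, after 24 h, exposed for 24 h at 37° C. to two-fold dilutions (final 0.2-100 μM) in MEM with 1% FBS and 1% DMSO. Viability was read by CellTiter-Glo luminescence, with IC50 from a 4-parameter logistic fit.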

[12] = test system: Klebsiella pneumoniae ATCC 51504 (KP4); test: MIC broth microdilution; type: cell-based; details: ATCC51504
Method in brief: as §1

[13] = test system: K. pneumoniae ATCC 700603 (KP3); test: MIC broth microdilution; type: cell-based, Klebsiella pneumoniae; details: Klebsiella pneumoniae, ATCC700603
Method in brief: as §2

[14] = test system: K. pneumoniae H151440671 (KP10); test: MIC broth microdilution; type: cell-based, Klebsiella pneumoniae; details: Klebsiella pneumoniae
Method in brief: as §2

[15] = test system: K. pneumoniae H154020667 (KP6); test: MIC broth microdilution; type: cell-based, Klebsiella pneumoniae; details: Klebsiella pneumoniae
Method in brief: as §2

[16] = test system: K. pneumoniae H154300688 (KP9); test: MIC broth microdilution; type: cell-based, Klebsiella pneumoniae; details: Klebsiella pneumoniae
Method in brief: as §2

[17] = test system: K. pneumoniae H154600588 (KP8); test: MIC broth microdilution; type: cell-based, Klebsiella pneumoniae; details: Klebsiella pneumoniae
Method in brief: as §2

[18] = test system: K. pneumoniae H154640784 (KP7); test: MIC broth microdilution; type: cell-based, Klebsiella pneumoniae; details: Klebsiella pneumoniae
Method in brief: as §2

[19] = test system: K. pneumoniae H154680676 (KP5); test: MIC broth microdilution; type: cell-based, Klebsiella pneumoniae; details: Klebsiella pneumoniae
Method in brief: as §2

MIC [1] [µM] | MIC [2] [µM] | MIC [3] [µM] | MIC [4] [µM] | MIC [5] [µM] | MIC [6] [µM] | MIC [7] [µM] | MIC [8] [µM] | MIC [9] [µM] | MIC [10] [µM] | IC50 [11] [µM] | MIC [12] [µM] | MIC [13] [µM] | MIC [14] [µM] | MIC [15] [µM] | MIC [16] [µM] | MIC [17] [µM] | MIC [18] [µM] | MIC [19] [µM] | Compound | other results
1 to 10 (≈ 0.285 to 2.85 µg/mL) | > 100 | 1 to 10 (≈ 0.285 to 2.85 µg/mL) | ≤ 1 | ≤ 1 | > 100 | 1 to 10 (≈ 0.285 to 2.85 µg/mL) | 10 to 100 (≈ 2.85 to 28.5 µg/mL) | > 100 | 10 to 100 (≈ 2.85 to 28.5 µg/mL) | > 100 |  |  |  |  |  |  |  |  | Cc1cc(-c2nc(N)[nH]c2-c2ccc(Cl)cc2)ccn1 [Example 4, 5-(4-Chlorophenyl)-4-(2-methylpyridin-4-yl)-1H-imidazol-2-amine] | 
≤ 1 | > 100 |  | 1 to 10 (≈ 0.364 to 3.64 µg/mL) | ≤ 1 | > 100 |  |  | > 100 | 1 to 10 (≈ 0.364 to 3.64 µg/mL) | > 100 | 1 to 10 (≈ 0.364 to 3.64 µg/mL) | 1 to 10 (≈ 0.364 to 3.64 µg/mL) | 1 to 10 (≈ 0.364 to 3.64 µg/mL) | 1 to 10 (≈ 0.364 to 3.64 µg/mL) | 1 to 10 (≈ 0.364 to 3.64 µg/mL) | 10 to 100 (≈ 3.64 to 36.4 µg/mL) | 1 to 10 (≈ 0.364 to 3.64 µg/mL) | 1 to 10 (≈ 0.364 to 3.64 µg/mL) | Cc1cc(-c2[nH]c(N)nc2-c2ccc3c(c2)N(C(=O)CN)CCO3)ccn1 [Example 62, 2-Amino-1-(6-(2-amino-5-(2-methylpyridin-4-yl)-1H-imidazol-4-yl)-2,3-dihydro-4H-benzo[b][1,4]oxazin-4-yl)ethan-1-one] | 

Second part, the compound before the results:

Compound | MIC [1] [µM] | MIC [2] [µM] | MIC [3] [µM] | MIC [4] [µM] | MIC [5] [µM] | MIC [6] [µM] | MIC [7] [µM] | MIC [8] [µM] | MIC [9] [µM] | MIC [10] [µM] | IC50 [11] [µM] | MIC [12] [µM] | MIC [13] [µM] | MIC [14] [µM] | MIC [15] [µM] | MIC [16] [µM] | MIC [17] [µM] | MIC [18] [µM] | MIC [19] [µM] | other results
COc1ccc(-c2[nH]c(N)nc2-c2ccnc(C)c2)cc1 [Example 21, 5-(4-Methoxyphenyl)-4-(2-methylpyridin-4-yl)-1H-imidazol-2-amine] | 1 to 10 (≈ 0.28 to 2.8 µg/mL) | > 100 | > 100 | 1 to 10 (≈ 0.28 to 2.8 µg/mL) | ≤ 1 | > 100 | > 100 | > 100 | > 100 | 10 to 100 (≈ 2.8 to 28 µg/mL) | > 100 |  |  |  |  |  |  |  |  | 
NC[C@H]1O[C@H](O[C@H]2[C@H](O)[C@@H](O[C@H]3O[C@H](CO)[C@@H](O)[C@H](N)[C@H]3O)[C@H](N)C[C@@H]2N)[C@H](N)C[C@@H]1O [TOB] |  |  |  |  |  |  |  |  |  |  |  |  |  |  |  |  |  |  |  | MIC UPEC [1]: D (a MIC of over 100 is assigned the letter D); MIC AB [2]: B (a MIC of from 1 to 10 is assigned the letter B); MIC Ecl [3]: C (a MIC of from 10 to 100 is assigned the letter C); MIC EC [4]: B (a MIC of from 1 to 10 is assigned the letter B); MIC PA [6]: B (a MIC of from 1 to 10 is assigned the letter B); MIC St [7]: B (a MIC of from 1 to 10 is assigned the letter B); MIC Sm [8]: A (an MIC (μM) of less or equal to 1 is assigned the letter A); MIC SA [9]: B (a MIC of from 1 to 10 is assigned the letter B)
Cc1cc(-c2[nH]c(N)nc2-c2ccc3c(c2)N(C(C)C)CCO3)ccn1 [Example 93, 4-(4-isopropyl-3,4-dihydro-2H-benzo[b][1,4]oxazin-6-yl)-5-(2-methylpyridin-4-yl)-1H-imidazol-2-amine] | ≤ 1 | > 100 |  | ≤ 1 | ≤ 1 | > 100 |  |  | > 100 | 1 to 10 (≈ 0.349 to 3.49 µg/mL) | 25 to 100 | ≤ 1 | 1 to 10 (≈ 0.349 to 3.49 µg/mL) | ≤ 1 | ≤ 1 | 1 to 10 (≈ 0.349 to 3.49 µg/mL) | 1 to 10 (≈ 0.349 to 3.49 µg/mL) | 1 to 10 (≈ 0.349 to 3.49 µg/mL) | ≤ 1 | 
